Experimental data from PubChem BioAssay AID206 (DTP/NCI, 2004).
Records with an inconclusive call do not appear.

Tested on: nude mice, HT29 intrarenal xenograft, tumor weight T/C
Assay: NCI In Vivo Anticancer Drug Screen. Data for tumor model HT29;CX-1 Human Adenocarcinoma (MER+) (intrarenal inoculation) in NU/NU Swiss (nude) mice
Conditions: endpoint: mean tumor weight change, higher = larger tumour
How it was run: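 T/C = treated-group value ÷ vehicle-group value, using tumor size or survival.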

[1] = dose: 150.0 mg/kg/injection, schedule: Q04DX004 (sc), vehicle: Klucel (hydroxypropylcellulose) (HPC)
[2] = dose: 300.0 mg/kg/injection, schedule: Q04DX004 (sc), vehicle: Klucel (hydroxypropylcellulose) (HPC)
[3] = dose: 5.0 mg/kg/injection, schedule: Q04DX004 (sc), vehicle: Klucel (hydroxypropylcellulose) (HPC)
[4] = dose: 600.0 mg/kg/injection, schedule: Q04DX004 (sc), vehicle: Klucel (hydroxypropylcellulose) (HPC)
[5] = dose: 150.0 mg/kg/injection, schedule: Q04DX004 (sc), vehicle: saline with Tween-80
[6] = dose: 300.0 mg/kg/injection, schedule: Q04DX004 (sc), vehicle: saline with Tween-80
[7] = dose: 150.0 mg/kg/injection, schedule: Q04DX004 (sc), vehicle: saline

In the case of `CCCCCCOC(CN(C)C)C(Cl)(Cl)Cl` (stereo not drawn), the T/C (dose: 400.0 mg/kg/injection, schedule: Q04DX004 (sc), vehicle: saline with Tween-80) is reported as 91 % of control, the T/C (dose: 800.0 mg/kg/injection, schedule: Q04DX004 (sc), vehicle: saline with Tween-80) is reported as 57 % of control and the T/C (dose: 1600.0 mg/kg/injection, schedule: Q04DX004 (sc), vehicle: saline with Tween-80) is reported as 81 % of control. The T/C (dose: 2400.0 mg/kg/injection, schedule: Q04DX004 (sc), vehicle: saline with Tween-80) was 67 % of control.

With `Clc1ccc2nnnn2n1` the T/C (dose: 100.0 mg/kg/injection, schedule: Q04DX004 (sc), vehicle: saline with Tween-80) was 114 % of control and the T/C (dose: 200.0 mg/kg/injection, schedule: Q04DX004 (sc), vehicle: saline with Tween-80) was 45 % of control.

For `NC(=O)c1ncn(C2OC(CO)C(O)C2O)c1O` (stereo not drawn), the T/C (dose: 37.5 mg/kg/injection, schedule: Q04DX004 (sc), vehicle: Klucel (hydroxypropylcellulose) (HPC)) was 76 % of control, the T/C (dose: 75.0 mg/kg/injection, schedule: Q04DX004 (sc), vehicle: Klucel (hydroxypropylcellulose) (HPC)) was 77 % of control and the T/C [1] was 71 % of control. For the same compound, the T/C [2] was 62 % of control.

For `Cc1c(N)nc(C(CC(N)=O)NCC(N)C(N)=O)nc1C(=O)NC(C(=O)NC(C)C(O)C(C)C(=O)NC(C(=O)NCCc1nc(-c2nc(C(=O)NCCCNC(C)c3ccccc3)cs2)cs1)C(C)O)C(OC1OC(CO)C(O)C(O)C1OC1OC(CO)C(O)C(OC(N)=O)C1O)c1cnc[nH]1` (stereo not drawn), the T/C (dose: 2.0 mg/kg/injection, schedule: Q01DX010 (sc), vehicle: saline) was 64 % of control, the T/C (dose: 4.0 mg/kg/injection, schedule: Q01DX010 (sc), vehicle: saline) was 65 % of control and the T/C (dose: 8.0 mg/kg/injection, schedule: Q01DX010 (sc), vehicle: saline) was 76 % of control. For the same compound, the T/C (dose: 16.0 mg/kg/injection, schedule: Q01DX010 (sc), vehicle: saline) was 65 % of control.

`C[C@@]12C(=O)OC(=O)[C@]1(C)[C@H]1CC[C@@H]2O1` was tested, and the T/C (dose: 1.25 mg/kg/injection, schedule: Q04DX004 (sc), vehicle: Klucel (hydroxypropylcellulose) (HPC)) was 87 % of control, the T/C (dose: 2.5 mg/kg/injection, schedule: Q04DX004 (sc), vehicle: Klucel (hydroxypropylcellulose) (HPC)) was 75 % of control and the T/C [3] was 89 % of control.

With `COc1cc(C)c2c(c1C=O)Oc1c(c(C)c(O)c3c1C(O)OC3=O)OC2=O` (stereo not drawn) the T/C (dose: 50.0 mg/kg/injection, schedule: Q01DX010 (sc), vehicle: saline) was 68 % of control and the T/C (dose: 200.0 mg/kg/injection, schedule: Q01DX010 (sc), vehicle: saline) was 50 % of control.

`CC(=O)OCC1OC([S-])C(OC(C)=O)C(OC(C)=O)C1OC(C)=O.CC[PH+](CC)CC.CC[PH+](CC)CC.[Au].[Au]` (stereo not drawn) was tested, and the T/C [3] was 177 % of control and the T/C (dose: 10.0 mg/kg/injection, schedule: Q04DX004 (sc), vehicle: Klucel (hydroxypropylcellulose) (HPC)) was 113 % of control.

`N=c1nc2n(cc1F)[C@@H]1O[C@H](CO)[C@@H](O)[C@@H]1O2` was tested, and the T/C (dose: 300.0 mg/kg/injection, schedule: Q04DX004 (sc), vehicle: suspension in saline) was 61 % of control and the T/C (dose: 1200.0 mg/kg/injection, schedule: Q04DX004 (sc), vehicle: suspension in saline) was 60 % of control.

With `Cc1ccccc1N(CC1CO1)CC1CO1` (stereo not drawn) the T/C (dose: 50.0 mg/kg/injection, schedule: Q01DX010 (sc), vehicle: suspension in saline) was 157 % of control, the T/C (dose: 100.0 mg/kg/injection, schedule: Q01DX010 (sc), vehicle: suspension in saline) was 38 % of control and the T/C (dose: 200.0 mg/kg/injection, schedule: Q01DX010 (sc), vehicle: suspension in saline) was 15 % of control. The T/C (dose: 800.0 mg/kg/injection, schedule: Q01DX010 (sc), vehicle: suspension in saline) was 67 % of control.

With `c1cc(-c2cc3ccc(C4=NCCN4)cc3[nH]2)ccc1C1=NCCN1` the T/C (dose: 25.0 mg/kg/injection, schedule: Q04DX004 (sc), vehicle: saline) was 84 % of control, the T/C (dose: 50.0 mg/kg/injection, schedule: Q04DX004 (sc), vehicle: saline) was 154 % of control and the T/C (dose: 100.0 mg/kg/injection, schedule: Q04DX004 (sc), vehicle: saline) was 124 % of control.

In the case of `C=C[Si]12OCCN(CCO1)CCO2`, the T/C [2] is reported as 92 % of control, the T/C [4] is reported as 93 % of control and the T/C (dose: 1200.0 mg/kg/injection, schedule: Q04DX004 (sc), vehicle: Klucel (hydroxypropylcellulose) (HPC)) is reported as 110 % of control. The T/C (dose: 2400.0 mg/kg/injection, schedule: Q04DX004 (sc), vehicle: Klucel (hydroxypropylcellulose) (HPC)) was 71 % of control.

With `O=C1NC(O)c2ccccc2O1` (stereo not drawn) the T/C (dose: 100.0 mg/kg/injection, schedule: Q04DX004 (sc), vehicle: suspension in saline) was 68 % of control, the T/C (dose: 200.0 mg/kg/injection, schedule: Q04DX004 (sc), vehicle: suspension in saline) was 115 % of control and the T/C (dose: 400.0 mg/kg/injection, schedule: Q04DX004 (sc), vehicle: suspension in saline) was 50 % of control. For the same compound, the T/C (dose: 800.0 mg/kg/injection, schedule: Q04DX004 (sc), vehicle: suspension in saline) was 55 % of control.

For `CC(C)CCCCCCCCCCCCC(=O)NCC(=O)NC1C(C)OC(Nc2ncnc3nc[nH]c23)C(O)C1O` (stereo not drawn), the T/C (dose: 2.0 mg/kg/injection, schedule: Q01DX010 (sc), vehicle: distilled water + Tween-80) was -35 % of control, the T/C (dose: 2.0 mg/kg/injection, schedule: Q01DX010 (sc), vehicle: saline with Tween-80) was -6 % of control and the T/C (dose: 4.0 mg/kg/injection, schedule: Q04DX004 (sc), vehicle: distilled water + Tween-80) was 37 % of control. For the same compound, the T/C (dose: 8.0 mg/kg/injection, schedule: Q01DX010 (sc), vehicle: distilled water + Tween-80) was 20 % of control, the T/C (dose: 8.0 mg/kg/injection, schedule: Q04DX004 (sc), vehicle: distilled water + Tween-80) was 36 % of control and the T/C (dose: 16.0 mg/kg/injection, schedule: Q01DX010 (sc), vehicle: saline with Tween-80) was 23 % of control.

For `NC(=O)c1[nH]nc(C2OC(CO)C(O)C2O)c1O` (stereo not drawn), the T/C (dose: 10.0 mg/kg/injection, schedule: Q04DX004 (sc), vehicle: saline) was 73 % of control.

With `CC(=O)OCC1(C)NC(=O)c2ccccc2O1` (stereo not drawn) the T/C [5] was 78 % of control, the T/C [6] was 79 % of control and the T/C (dose: 600.0 mg/kg/injection, schedule: Q04DX004 (sc), vehicle: saline with Tween-80) was 100 % of control. The T/C (dose: 1200.0 mg/kg/injection, schedule: Q04DX004 (sc), vehicle: saline with Tween-80) was 52 % of control.

For `COC(=O)c1ccoc1`, the T/C [7] was 116 % of control.

For `C1CNCOC1`, the T/C (dose: 75.0 mg/kg/injection, schedule: Q04DX004 (sc), vehicle: saline) was 123 % of control, the T/C [7] was 158 % of control and the T/C (dose: 300.0 mg/kg/injection, schedule: Q04DX004 (sc), vehicle: saline) was 91 % of control. The T/C (dose: 600.0 mg/kg/injection, schedule: Q04DX004 (sc), vehicle: saline) was 75 % of control.

`COc1ccc(/C=C/C(=O)c2cc(C(=O)O)c(OC)cc2OC)cc1OC` was tested, and the T/C (dose: 225.0 mg/kg/injection, schedule: Q04DX004 (sc), vehicle: suspension in saline) was 82 % of control, the T/C (dose: 450.0 mg/kg/injection, schedule: Q04DX004 (sc), vehicle: suspension in saline) was 102 % of control and the T/C (dose: 900.0 mg/kg/injection, schedule: Q04DX004 (sc), vehicle: suspension in saline) was 88 % of control.

`Cc1cc(NCCCCCCNc2cc(C)nc3cc(N(C)C)ccc23)c2ccc(N(C)C)cc2n1` was tested, and the T/C (dose: 37.5 mg/kg/injection, schedule: Q04DX004 (sc), vehicle: distilled water + Tween-80 + alcohol) was 112 % of control and the T/C (dose: 75.0 mg/kg/injection, schedule: Q04DX004 (sc), vehicle: distilled water + Tween-80 + alcohol) was 42 % of control.

With `CC(=O)NC(Cc1ccc(F)cc1)C(=O)O` (stereo not drawn) the T/C (dose: 225.0 mg/kg/injection, schedule: Q04DX004 (sc), vehicle: saline with Tween-80) was 108 % of control, the T/C (dose: 450.0 mg/kg/injection, schedule: Q04DX004 (sc), vehicle: saline with Tween-80) was 114 % of control and the T/C (dose: 900.0 mg/kg/injection, schedule: Q04DX004 (sc), vehicle: saline with Tween-80) was 83 % of control. For the same compound, the T/C (dose: 1800.0 mg/kg/injection, schedule: Q04DX004 (sc), vehicle: saline with Tween-80) was 106 % of control.

For `CC(C)CC(=O)NC(C(=O)NC(C(=O)NC(CC(C)C)C(O)CC(=O)NC(C)C(=O)NC(CC(C)C)C(O)CC(=O)O)C(C)C)C(C)C` (stereo not drawn), the T/C [1] was 102 % of control, the T/C [2] was 87 % of control and the T/C [4] was 69 % of control.

With `CC/C(=C(/CC)c1ccc(O)cc1)c1ccc(O)cc1` the T/C [5] was 70 % of control and the T/C [6] was 69 % of control.

With `COc1cc2cc(c1Cl)N(C)C(=O)CC(OC(=O)C(C)C)C1(C)OC1C(C)C1CC(O)(NC(=O)O1)C(OC)/C=C/C=C(C)C2` (stereo not drawn) the T/C (dose: 12.5 micrograms/kg/injection, schedule: Q04DX004 (sc), vehicle: saline + alcohol) was 74 % of control, the T/C (dose: 25.0 micrograms/kg/injection, schedule: Q04DX004 (sc), vehicle: saline + alcohol) was 155 % of control and the T/C (dose: 50.0 micrograms/kg/injection, schedule: Q04DX004 (sc), vehicle: saline + alcohol) was 165 % of control. The T/C (dose: 100.0 micrograms/kg/injection, schedule: Q04DX004 (sc), vehicle: saline + alcohol) was 31 % of control and the T/C (dose: 500.0 micrograms/kg/injection, schedule: Q04DX004 (sc), vehicle: saline + alcohol) was 5 % of control.
